Assay results as given in ChEMBL document CHEMBL1151969, “Melanin synthesis inhibitors from Lespedeza floribunda” (J Nat Prod, 2009).

How the values were obtained:
[1] = Inhibition of melanin synthesis in NHEM cells assessed as [14C]thiouracil incorporation after 72 hrs by liquid scintillation counting; type: functional, cell-based, Homo sapiens
[2] = Cytotoxicity against NHEM cells assessed as cell viability after 72 hrs by WST-8 assay; type: cell-based; conditions: human

IC50 ([1]; Homo sapiens, NHEM, 72 h) [µM] | IC50 ([1]; nhem) [µM] | Structure (SMILES) | Activity [2]
4.93 |  | COc1cc(O)ccc1[C@@H]1CC(=O)c2c(O)cc3c(c2O1)C=CC(C)(C)O3 [LESPEFLORIN A4] | Non-toxic
 | 1.02 | CC(C)=CCc1c(O)c(CC=C(C)C)c2c(c1O)C(=O)C[C@@H](c1cc3c(cc1O)OC(C)(C)C=C3)O2 (stereo in doubt) [EUCHRENONE A3] | 
1.5 |  | CC(C)=CCc1cc2c(c(CC=C(C)C)c1O)O[C@H](c1ccc3c(c1)C=CC(C)(C)O3)CC2=O [LESPEFLORIN A3] | Non-toxic
1.84 |  | CC(C)=CCc1cc2c(cc1O)OC[C@H]1c3ccc4c(c3O[C@@H]21)C=CC(C)(C)O4 [FOLITENOL] | Non-toxic
1.68 |  | COc1cc(O)c(CC=C(C)C)cc1C(=O)[C@@H](O)Cc1ccc(O)cc1 [LESPEFLORIN C3] | Non-toxic
2.07 |  | COc1c(O)cc2c(c1CC=C(C)C)O[C@H]1c3cc(CC=C(C)C)c(O)cc3OC[C@@H]21 [LESPEFLORIN G2] | Non-toxic
1.44 |  | CC(C)=CCc1c(O)c(C)cc2c1O[C@H]1c3ccc(O)cc3OC[C@@H]21 [LESPEFLORIN G10] | Non-toxic
37.7 |  | CC(C)=CCc1cc(-c2oc3c(CC=C(C)C)c(O)c(O)cc3c2C(=O)c2cc3c(c(CC=C(C)C)c2O)O[C@H]2c4cc(CC=C(C)C)c(O)cc4OC[C@@H]32)c(O)cc1O [LESPEFLORIN J3] | Non-toxic
103 |  | OC[C@H]1O[C@@H](Oc2ccc(O)cc2)[C@H](O)[C@@H](O)[C@@H]1O [ARBUTIN] | 
2.87 |  | CC(C)=CCc1cc([C@H]2Oc3cc(O)c(CC=C(C)C)cc3C(=O)[C@@H]2O)ccc1O [LESPEFLORIN B1] | Non-toxic
2 |  | CC(C)=CCc1cc2c(cc1O)OC[C@H]1c3ccc(O)c(CC=C(C)C)c3O[C@@H]21 [ERYBRAEDIN C] | Non-toxic
2.59 |  | CC(C)=CCc1cc([C@@H]2CC(=O)c3c(cc(O)c(CC=C(C)C)c3O)O2)ccc1O [MACARANGAFLAVANONE B] | Non-toxic
1.47 |  | COc1c([C@@H]2COc3c(ccc(O)c3CC=C(C)C)C2=O)ccc(O)c1CC=C(C)C [LESPEFLORIN D1] | Non-toxic
6.16 |  | COc1c(C)cc2c(c1CC=C(C)C)O[C@H]1c3ccc(O)cc3OC[C@@H]21 [LESPEFLORIN G6] | Non-toxic
> 52.8 |  | COc1ccc(-c2oc3c(CC=C(C)C)c(O)c(O)cc3c2C(=O)c2cc3c(c(CC=C(C)C)c2O)O[C@H]2c4cc(CC=C(C)C)c(O)cc4OC[C@@H]32)c(O)c1 [LESPEFLORIN J4] | Non-toxic
> 135 |  | COc1ccc(C[C@H](O)C(=O)c2cc(CC=C(C)C)c(O)cc2OC)cc1 [LESPEFLORIN C4] | Non-toxic
> 52.8 |  | COc1ccc(-c2oc3c(CC=C(C)C)c(O)c(O)cc3c2C(=O)c2cc3c(c(CC=C(C)C)c2O)O[C@H]2c4ccc(O)c(CC=C(C)C)c4OC[C@@H]32)c(O)c1 [LESPEFLORIN J2] | Non-toxic

IC50 ([1]; Homo sapiens, NHEM, 72 h) [µM] | IC50 ([1]; nhem) [µM] | Structure (SMILES) | Activity [2]
3.6 |  | CC(C)=CCc1cc([C@@H]2CC(=O)c3c(O)c(CC=C(C)C)c(O)c(CC=C(C)C)c3O2)cc(O)c1O [AMORISIN] | 
0.68 |  | CC(C)=CCc1cc([C@H]2Oc3c(cc(CC=C(C)C)c(O)c3CC=C(C)C)C(=O)[C@@H]2O)ccc1O [LESPEFLORIN B3] | Non-toxic
10.8 |  | COc1c(O)ccc(-c2cc3ccc(O)c(OC)c3o2)c1OC [LESPEFLORIN F1] | Non-toxic
29.2 |  | O=c1c(-c2ccc(O)cc2)coc2cc(O)cc(O)c12 [GENISTEIN] | Non-toxic
7.8 |  | CC(C)=CCc1cc([C@@H]2CC(=O)c3c(O)c(CC=C(C)C)c(O)c(CC=C(C)C)c3O2)c(O)cc1O [LESPEDEZAFLAVANONE H] | 
3.73 |  | COc1cc2c(cc1O)O[C@H]1c3ccc(O)c(CC=C(C)C)c3OC[C@@H]21 [LESPEFLORIN G1] | Non-toxic
27 |  | COc1ccc2c(c1)OCc1c-2oc2c(CC=C(C)C)c(O)c(O)cc12 [LESPEFLORIN H1] | Non-toxic
3.96 |  | COc1ccc([C@@H]2CC(=O)c3cc(CC=C(C)C)c(O)c(CC=C(C)C)c3O2)cc1 [LESPEFLORIN A1] | Non-toxic
1.48 |  | COc1ccc2c(c1)OCc1c-2oc2c3c(c(O)cc12)OC(C)(C)C=C3 [LESPEFLORIN H2] | Non-toxic
3.84 |  | CC(C)=CCc1c(O)ccc2c1O[C@H]1c3ccc(O)c(CC=C(C)C)c3OC[C@@H]21 [ERYBRAEDIN A] | Non-toxic
3.21 |  | CC(C)=CCc1cc2c(cc1O)oc(=O)c1c3cc(O)c(O)cc3oc21 [LESPEFLORIN I1] | Non-toxic
1.23 |  | CC(C)=CCc1cc([C@H]2Oc3c(CC=C(C)C)c(O)c(CC=C(C)C)c(O)c3C(=O)[C@@H]2O)ccc1O [LESPEFLORIN B4] | Non-toxic
6.02 |  | COc1cc2c(c(CC=C(C)C)c1O)O[C@H]1c3ccc(O)cc3OC[C@@H]21 [LESPEFLORIN G7] | Non-toxic
> 146 |  | CC(C)=CCc1cc(C(=O)[C@@H](O)Cc2ccc(O)cc2)c(O)cc1O [LESPEFLORIN C1] | Non-toxic
8.41 |  | CC(C)=CCc1c(O)c2c(c3c1OC(C)(C)C=C3)O[C@H](c1ccc(O)cc1)CC2=O [CAJAFLAVANONE] | Non-toxic
28.1 |  | COc1ccc(C[C@H](O)C(=O)c2cc(CC=C(C)C)c(O)cc2O)cc1 [LESPEFLORIN C2] | Non-toxic
3.86 |  | COc1ccc([C@@H]2CC(=O)c3ccc(O)c(CC=C(C)C)c3O2)cc1 [LESPEFLORIN A2] | Non-toxic

Continued, compound first:

Structure (SMILES) | IC50 ([1]; Homo sapiens, NHEM, 72 h) [µM] | IC50 ([1]; nhem) [µM] | Activity [2]
CC(C)=CCc1cc([C@@H]2CC(=O)c3cc(CC=C(C)C)c(O)c(CC=C(C)C)c3O2)ccc1O [PROSTRATOL] | 0.98 |  | Non-toxic
CC(C)=CCc1cc2c(cc1O)OC[C@H]1c3cc(C)c(O)c(CC=C(C)C)c3O[C@@H]21 [LESPEFLORIN G4] | 3.24 |  | Non-toxic
CC(C)=CCc1cc(-c2oc3c(CC=C(C)C)c(O)c(O)cc3c2C(=O)c2cc3c(c(CC=C(C)C)c2O)O[C@H]2c4ccc(O)c(CC=C(C)C)c4OC[C@@H]32)c(O)cc1O [LESPEFLORIN J1] | 39.6 |  | Non-toxic
CC(C)=CCc1cc2c(c(CC=C(C)C)c1O)O[C@H](c1ccc(O)cc1)[C@@H](O)C2=O [LESPEFLORIN B2] | 2.19 |  | Non-toxic
CC(C)=CCc1c(O)c(CC=C(C)C)c2c(c1O)C(=O)C[C@@H](c1cc3c(cc1O)OC(C)(C)C=C3)O2 (stereo in doubt; 45) [EUCHRENONE A3] | 1.51 |  | Non-toxic
Oc1ccc(O)cc1 [HYDROQUINONE] | 2.2 |  | 
COc1ccc2c(c1)oc(=O)c1c3cc(O)c(O)c(CC=C(C)C)c3oc21 [LESPEFLORIN I3] | 27.3 |  | Non-toxic
COc1cc2c(CO)c(-c3ccc(O)cc3O)oc2c(CC=C(C)C)c1O [LESPEFLORIN F2] | 8.27 |  | Non-toxic
COc1c(O)cc2c(c1CC=C(C)C)O[C@H]1c3c(cc(O)c(CC=C(C)C)c3OC)OC[C@@H]21 [LESPEFLORIN G3] | 2.03 |  | Non-toxic
CC(C)=CCc1cc2c(cc1O)OC[C@H]1c3cc(O)c4c(c3O[C@@H]21)C=CC(C)(C)O4 [LESPEFLORIN G11] | 2.9 |  | Non-toxic
CC(C)=CCc1cc([C@@H]2CC(=O)c3c(O)c(CC=C(C)C)c(O)c(CC=C(C)C)c3O2)ccc1O [AMORILIN] | 1.21 |  | 
CC(C)=CCc1cc2c(cc1O)oc(=O)c1c3cc(O)c(O)c(CC=C(C)C)c3oc21 [LESPEFLORIN I2] | 28.3 |  | Non-toxic
CC(C)=CCc1cc2c(cc1O)O[C@H](c1ccc(O)cc1)CC2=O [BAVACHIN] | 2.7 |  | Non-toxic
CC(C)=CCc1cc2c(c(CC=C(C)C)c1O)O[C@H](c1ccc(O)cc1)CC2=O | 2.52 |  | Non-toxic
COc1c(O)ccc2c1OCC(c1ccc(O)c(OC)c1OC)=C2 [LESPEFLORIN E1] | 4.29 |  | Non-toxic
CC(C)=CCc1c(O)ccc2c1OC[C@H]1c3ccc4c(c3O[C@@H]21)C=CC(C)(C)O4 [ERYBREADIN B] | 2.93 |  | Non-toxic
COc1cc2c(cc1C(=O)[C@@H](O)Cc1ccc(O)cc1)C=CC(C)(C)O2 [LESPEFLORIN C7] | 3.78 |  | Non-toxic
CC(C)=CCc1c(O)c(C)cc2c1O[C@H]1c3ccc(O)c(CC=C(C)C)c3OC[C@@H]21 [LESPEFLORIN G5] | 1.52 |  | Non-toxic
COc1ccc2c(c1)OC[C@H]1c3cc(O)c4c(c3O[C@@H]21)C=CC(C)(C)O4 [LESPEFLORIN G12] | 8.34 |  | Non-toxic
CC(C)=CCc1cc(C(=O)[C@@H](O)Cc2ccc(O)cc2)c(O)c(CC=C(C)C)c1O [LESPEFLORIN C6] | 22 |  | Non-toxic
COc1ccc2c(c1)OC[C@H]1c3cc(O)c(OC)c(CC=C(C)C)c3O[C@@H]21 [LESPEFLORIN G8] | 1.63 |  | Non-toxic
COc1ccc2c(c1)OC[C@H]1c3cc(OC)c(O)c(CC=C(C)C)c3O[C@@H]21 [LESPEFLORIN G9] | 8.38 |  | Non-toxic
CC(C)=CCc1cc(C(=O)[C@@H](O)Cc2ccc(O)cc2)c(O)c(C)c1O [LESPEFLORIN C5] | > 135 |  | Non-toxic
